Patent US20240207242A1, “PHARMACEUTICAL COMPOSITION COMPRISING SPHINGOSINE-1-PHOSPHATE RECEPTOR AGONIST WITH CONTROLLED PARTICLE SIZE” (LG CHEM, LTD., priority 2021, published 2024)
Structures can show the parent of a compound that is named as a salt.

Test: Pharmacokinetic property (plasma concentration), crossover, tablets (FIG. 3)
Type: in vivo
Conditions: male beagle dogs, tablets with Samples 5 to 7
Experimental: A crossover design of taking all three tablets (active ingredients having a particle size of Samples 5 to 7) was applied to this experimentation, and the three tablets were administered to male beagle dogs once each with a 14-day wash-out period. Each dose was taken with 50 mL of water while maintaining the fasted state for at least 14 hours. The results are represented in FIG. 3.

CC(C)n1nc(Cl)c2cc(COc3ccc4c(c3)CCC(CN3CCC(C(=O)O)CC3)=C4Cl)ccc21 [API, 1-[1-chloro-6-(3-chloro-1-isopropyl-1H-indazol-5-ylmethoxy)-3,4-dihydro-naphthalen-2-ylmethyl]-piperidine-4-carboxylic acid hydrochloride]
particle size d(0.9) based on Cmax to show bioequivalence in terms of pharmacokinetics: ≤ 60 μm
